Data on 18 compounds can be found in the SangsterLogP compilation.

Structures are written as SMILES.

This data set can be described thus: method code SF-AS, from DOI: 10.1248/cpb.39.1736, PMID: 1777927.
Consider `CCCCC=Cc1ccc(O)c(O)c1`, for which the logP (in general, a log measure of how a compound divides between an organic and an aqueous phase) worked out at 3.82.
The compound `COc1ccc(CNC(=O)C=Cc2ccc(O)c(O)c2)cc1OC` displayed a logP of 1.99.
Take `CCCCNC(=O)c1ccc2cc(O)c(O)cc2c1`: the logP came out at 2.72.
`O=C(/C=C/c1ccc(O)c(O)c1)CCCCCO` displayed a logP of 1.67.
With `CCCCOC(=O)/C=C/c1ccc(O)c(O)c1`, the logP turned out to be 3.53.
`CCCCCCNC(=O)c1ccc(O)c(O)c1` had a logP of 2.71.
Regarding `CCCC(=O)C=Cc1ccc(O)c(O)c1`, the logP was 2.61.
`COc1ccc(CCNC(=O)/C=C/c2ccc(O)c(O)c2)cc1OC` displayed a logP of 2.07.
Compound `COc1ccc(NC(=O)/C=C/c2ccc(O)c(O)c2)cc1OC` came in with a logP of 2.3.
The compound `CCCCCC(O)c1ccc(O)c(O)c1` (stereo not drawn) displayed a logP of 2.32.
The result for `O=C(/C=C/c1ccc(O)c(O)c1)NCc1ccccc1` reads 2.48; that for `CCCCCCNC(=O)C=Cc1ccc(O)c(O)c1`, 3.37.
Turning to `CCCCCCNC(=O)/C=C/Oc1ccc(O)c(O)c1`, the logP was determined as 3.36.
Compound `CCc1ccc2cc(O)c(O)cc2c1` registered a logP of 3.25.
`CC(=O)c1ccc2cc(O)c(O)cc2c1` displayed a lipophilicity (logP) of 2.32.
Next, `CCCCc1ccc(O)c(O)c1`: 2.96; `O=C(/C=C/c1ccc(O)c(O)c1)NCCc1ccccc1`: 2.72.
Take `CCOc1ccc2cc(O)c(O)cc2c1`: the logP was 2.7.
